Test results taken from the supplement of paper PMC10307832.

Key:
Assay in all cases: relative viability (nuclei count vs DMSO), 5 days (fraction); higher = more cells survive
Dasatinib = compound: Cc1nc(Nc2ncc(C(=O)Nc3c(C)cccc3Cl)s2)cc(N2CCN(CCO)CC2)n1 [Dasatinib]
In short: (§1)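 Lung cancer cell lines received five library-drug doses (not always all listed) spaced by √10, pinned on vehicle-anchored 1536-well plates after an overnight stay at 37 °C. Five days later, with no medium change, nuclei were Hoechst-stained, imaged at 4× and counted with MetaXpress. Viability is treated-well nuclei relative to vehicle-well nuclei, as a median across plates. Passing plates had control CV below 25% and at least one doubling.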

XMD13-2 = compound: C1CC1C(=O)NC2=NNC3=C2C=CC(=C3)C4=CC(=CC=C4)C(=O)NC5CC5 [XMD13-2]
In short: as §1

ALW-II-49-7 = compound: Cc1ccc(C(=O)Nc2cccc(C(F)(F)F)c2)cc1Nc1cncc(C(N)=O)c1 [ALW-II-49-7]
In short: as §1

Cell Line	relative viability (Dasatinib; 0.005 µM)	relative viability (Dasatinib; 0.01581 µM)	relative viability (Dasatinib; 0.05 µM)	relative viability (Dasatinib; 0.1581 µM)	relative viability (Dasatinib; 0.5 µM)	relative viability (XMD13-2; 0.05 µM)	relative viability (XMD13-2; 0.1581 µM)	relative viability (XMD13-2; 0.5 µM)	relative viability (XMD13-2; 1.581 µM)	relative viability (XMD13-2; 5 µM)	relative viability (ALW-II-49-7; 0.08 µM)	relative viability (ALW-II-49-7; 0.253 µM)	relative viability (ALW-II-49-7; 0.8 µM)	relative viability (ALW-II-49-7; 2.53 µM)	relative viability (ALW-II-49-7; 8 µM)	relative viability (Dasatinib; 0.075 µM, anchor plate)
NCI-H1299	1.04	0.996	0.998	0.886	0.263	0.984	1.04	1.05	1.04	1.09	1.05	1.05	0.938	0.921	0.843	
NCI-H1355	1	0.83	0.998	0.781	0.582	1.12	0.961	0.995	0.949	1.02	0.939	0.963	0.953	0.957	0.928	0.731
NCI-H1395	0.91	1.03	0.783	0.442	0.429	1.06	0.918	0.948	0.852	1	0.941	0.992	1.1	0.917	0.851	0.435
NCI-H1437	1.05	1.05	1.04	0.887	0.348	0.984	0.992	1.02	0.941	1.06	0.985	0.989	0.973	0.994	0.947	0.443
NCI-H1563	0.901	0.703	0.735	0.619	0.584	1.07	1.03	1.09	0.966	1.06	0.962	0.993	0.957	0.941	0.887	0.465
NCI-H1623	0.97	0.851	0.935	0.767	0.564	0.948	1.03	0.879	0.89	0.965	0.934	0.903	0.947	0.967	0.91	0.542
NCI-H1648	1.26	0.938	1.03	0.405	0.192	1.14	0.764	0.84	0.94	0.814	0.633	0.839	0.676	0.683	0.797	
NCI-H1650	0.868	0.769	0.6	0.388	0.338	1.08	0.936	1.17	0.951	0.907	0.854	0.789	0.836	0.985	0.985	0.336
NCI-H1651	1.01	0.902	0.91	0.817	0.758	1.06	0.95	1.03	1.02	1.04	1.09	0.923	0.956	0.952	0.943	0.391
NCI-H1666	0.995	1	1.02	0.829	0.478	1.05	1.05	0.997	0.994	0.964	0.988	0.943	0.92	1.24	1.04	0.851
NCI-H1703	0.482	0.457	0.311	0.177	0.148	1.29	1.33	1.05	0.764	1.06	0.982	0.981	0.734	0.429	0.434	
NCI-H1734	0.863	0.772	0.777	0.508	0.51	1.1	0.848	1.03	0.869	0.748	0.933	1.04	1.01	0.886	0.822	0.481
NCI-H1755	0.964	0.868	0.747	0.544	0.363	1.07	0.997	0.994	0.985	1.04	0.975	1.03	1.02	0.968	0.897	0.44
NCI-H1792	0.844	0.773	0.643	0.653	0.277	1.09	0.907	0.925	0.808	1.12	0.679	0.873	0.915	0.73	0.654	0.827
NCI-H1793	0.635	0.543	0.537	0.457	0.414	1.27	0.721	1.07	0.977	1.12	0.984	0.894	0.757	0.836	0.934	0.391
NCI-H1915	0.966	0.987	0.903	0.492	0.256	1.02	0.958	1.08	0.985	1	0.993	1.01	0.945	0.85	0.544	0.315
NCI-H1944	0.918	0.902	0.644	0.286	0.208	1.11	0.958	1.06	1.18	0.977	0.997	0.91	0.949	0.934	0.893	0.228
NCI-H1975	0.83	0.768	0.78	0.545	0.282	1.23	1.01	0.98	1.1	0.961	0.956	0.996	0.757	0.855	0.841	0.378
NCI-H1993	0.793	0.653	0.856	0.736	0.507	1.07	0.895	0.885	0.822	0.925	0.899	0.952	1.07	1.07	1.01	0.625
